# Experiments:
# [1] = tested on: BJ cells; experiment: VP16-induced cellular senescence, SA-β-gal staining, BJ cells; assay type: cell-based, Human; conditions: C1632 120 μM, VP16 40 μM for 4-7 days, FIG. 1A, 1B
# Description: MRC5 and BJ cells were cultured in DMEM low-glucose medium containing 10% FBS. The cells were passaged or plated at a ratio of 1:3.0.5×10^5 cells were plated in 12-well plates and in the next day treated with VP16 at a final concentration of 40 μM for 4-7 days to induce cellular senescence. A cellular senescence model was constructed. While inducing cellular senescence, C1632 with a final concentration of 120 μM is added. The effect of C1632 on the senescence of BJ and MRC5 cells was detected by SA-β-gal staining, and the effect of C1632 on cellular senescence was studied.
# [2] = tested on: C57BL/6 mice, CCl4 liver fibrosis model; experiment: CCl4-induced liver fibrosis mouse model, collagen staining of liver sections; assay type: in vivo; conditions: 17 mg/kg C1632 after each CCl4 injection
# Description: C57BL/6 mice were divided into normal control group, CCl4 group and CCl4+C1632 group, with 7 mice in each group. The mice in the CCl4+C1632 group were injected with 17 mg/kg C1632 for treatment after each injection of CCl4. At the end of the experiment, the mice were sacrificed, and the obtained livers were fixed with 4% paraformaldehyde, dehydrated, embedded and sliced.
# 1. The collagen fibers in the tissue were stained blue through Masson staining, and the muscle fibers and cytoplasm were stained red through Masson staining. The sections were routinely deparaffinized to water and stained with Weigert's hematoxylin for 5 to 10 minutes. The sections were differentiated with 1% hydrochloric alcohol differentiation solution and washed with water. The sections was returned blue by using Masson bluing solution and washed with water for 1 min. The sections were stained with Ponceau fuchsin staining solution for 5 to 10 min, soaked in 1% glacial acetic acid for a moment, then washed with the phosphomolybdic acid solution for 1 to 2 min. The sections were stained in the aniline blue staining solution for 1 to 2 min after washed with 1% glacial acetic acid for 1 min. The sections were rinsed with 1% glacial acetic acid in three consecutive cylinders for about 8 s, then successively dehydrated by three consecutive cylinders of absolute ethanol for about 5 s, 10 s, and 30 s, and dehydrated by two cylinders of n-butyl alcohol for 30 s and 2 min in turn, and finally permeabilized by two cylinders of xylene for 5 min each time, and sealed with neutral gum.
# 2. To further verify the effect of C1632 on liver fibrosis, the above tissue sections were subjected to Van Gieson (VG) staining, which was a mature connective tissue staining method to distinguish collagen fibers from muscle fibers. Paraffin sections were deparaffinized into water, and then placed into VG staining solution prepared with acid fuchsin and picric acid, stained for 1 min, quickly washed with water, and quickly dehydrated in three cylinders of absolute ethanol. The sections were placed into xylene for permeabilizing, then sealed with neutral gum and photographed under a microscope.
# The sections deparaffinized to water were oxidized with Gordon-Sweets oxidizer for 5 min. After washing with water, the sections were bleached with oxalic acid solution for 1 to 2 min. After washing with distilled water, the sections were mordanted with ferric ammonium sulfate solution for 5 min, then rinsed briefly with water. Gordon-Sweets silver ammonia solution was dropwise added for staining for 3 min. The sections were briefly washed with distilled water, reduced with Gordon-Sweets reducing agent for 1 min and rinsed under running water for 10 min. The nucleus was stained with nuclear fast red staining solution for 5-10 min. […]
# [3] = stated for a known small molecule drug, no test described; cited from earlier work
# [4] = tested on: TERC−/− G4 mice; experiment: TERC−/− G4 senescence mouse model: survival and lung immunohistochemistry; assay type: in vivo
# Description: Paraffin sections were melted at 65° C. for 1 h, rehydrated by rinsing in xylene for 10 min, xylene for 10 min, absolute ethanol for 3 min, 95% ethanol for 3 min, 85% ethanol for 3 min, 70% ethanol for 3 min and water, followed by two rinses with PBS for 5 min each. The sections were blocked with 3% hydrogen peroxide (in methanol) for 10 min, and then washed twice with PBS for 5 min each time. Then the sections were put into antigen retrieval buffer (pH 6.0) and heat by microwave for 10 min to retrieve antigen, then, slowly cool the solution at room temperature for 1 h, and wash the solution twice with PBS for 5 min each time. The sections were blocked with 10% goat serum for 1 h, incubated overnight with the primary antibodies at 4° C. in the dark, washed twice with PBS for 5 min each time, incubated with the secondary antibodies at room temperature in the dark for 30 min, and washed twice with PBS for 5 min each time. The sections were subjected to DAB color development and hematoxylin staining, and then rinsed in tap water for 8 min to produce a blue color. The sections were dehydrated with gradient alcohol, dried, and sealed with neutral gum.
# 1, TERC−/−G4 senescence mouse model: Mice had very long telomere length, and it took 3-6 generations of breeding to develop a premature senescence phenotype after telomerase knockout. TERC+/−mice were screened for TERC+/−mice as breeding protection. The first generation of TERC−/− mice was G1 mice. G1 mice were mated with each other to give birth to G2 mice, which continued to reproduce until G4. At this time, mice had very short telomeres and could develop senescence phenotype at 3-4 months of age.
# 2, Genotype identification of TERC knockout mice: Small segments of tails were cut from the identified mice and digested in 10 mM Tris-HCl 0.5% SDS 1 mM EDTA pH8.0 buffer containing 0.4 mg/mL proteinase K at 65° C. for 2 hours, and then 0.5 μL digestive solution was used as a template for PCR amplification. PCR products which were 250 bp indicated wild-type and 180 bp indicated TERC knockdown.
# 3, One-month-old G4 mice were given 68 mg/kg C1632 once a week, with 10 mice in each group.
# 4, Since senescent cells were mainly eliminated by immune cells in vivo, in addition to inhibiting the generation of senescent cells, the inventors also examined the effect of C1632 on the immune microenvironment of senescent lung tissue.
# [5] = tested on: C57BL/6 mice; experiment: Safety profile in IPF model and control mice: body weight and routine blood test; assay type: in vivo
# Description: In order to test the safety profile of C1632, the IPF model C57BL/6 mice and the control mice were intraperitoneally injected with 68 mg/kg C1632 three times a week and weighed, respectively. At the end of the experiment, the whole blood was a collected for routine blood test. […] In addition, the routine blood test results of mice in each group are mostly within the reference interval.
# [6] = normal mice, 68 mg/kg i.p. three times a week
smiles,measurement,setting,value
CC(=O)N(C)c1cccc(-c2ccc3nnc(C)n3n2)c1 [C1632],VP16-induced senescence (β-gal-positive cell rate) in BJ cells,[1],inhibits VP16-induced senescence
same,"Collagen fibers in liver tissue, Masson staining","[2]; twice a week for 6 weeks, FIG. 5",can inhibit the expression of collagen fibers induced by CCl4
same,"Collagen fiber levels in liver tissue, Van Gieson (VG) staining",[2]; FIG. 6,significantly reduces collagen fiber levels
same,"Reticular fibers in liver tissue, reticular fiber staining",[2]; FIG. 7,can inhibit the expression of reticular fibers induced by CCl4
same,"Type I collagen production in liver, Sirius red staining","[2]; polarized light, FIG. 8",can significantly inhibit the production of type I collagen
same,Solubility,[3],"can be dissolved in water, ethanol or DMSO"
same,Thermal stability,[3],good thermal stability
same,Life span of TERC−/− G4 mice,"[4]; 68 mg/kg once a week, survival curves FIG. 2A",greatly extended the life span
same,Mice still surviving when all control mice had died,"[4]; TERC−/− G4 mice, 68 mg/kg once a week from one month of age, 3 and a half months after the experiment, FIG. 2A",80%
same,Immunosuppressive T cell marker FOXP3 in senescent lung tissue (immunohistochemistry),"[4]; lung tissues from senescence mice, FIG. 3",reduces the immunosuppressive T cell marker FOXP3
same,"Lung tissue senescence (expression of senescence markers p16 and p21, immunohistochemistry)","[4]; lungs of TERC−/− G4 mice, 68 mg/kg once a week, FIG. 2B",significantly inhibited lung tissue senescence
same,Routine blood tests overall,"[5]; IPF mice, 68 mg/kg i.p. three times a week, FIG. 11B to 11S",does not cause deterioration
same,Body weight compared with the corresponding saline group,"[5]; IPF model and control mice, 68 mg/kg intraperitoneally three times a week, FIG. 11A",does not significantly change the body weight
same,"Mean platelet volume (MPV), model group","[5]; IPF model mice, 68 mg/kg i.p. three times a week",no significant effect
same,"PDW, fibrotic mice","[5]; fibrotic (IPF) mice, 68 mg/kg i.p. three times a week",no significant effect
same,"Mean platelet volume (MPV), normal mice",[5]; [6],significantly increase
same,"PDW, normal mice",[5]; [6],significantly inhibits
